Test results from US9481700B2, “Method for preparing isofagomine and its derivatives” (Amicus Therapeutics, Inc., priority 2007, dated 2016).
Where a name gives a salt, the structure may show the parent alone.

Key:
human GCase = target: T1, human GCase (Homo sapiens, UniProt P04062); assay: Phase 1 clinical trials, GCase activity in healthy volunteers; type: in vivo
T1 construct: human GCase in healthy volunteers; endogenous in cells
T1 sequence (P04062 40-536): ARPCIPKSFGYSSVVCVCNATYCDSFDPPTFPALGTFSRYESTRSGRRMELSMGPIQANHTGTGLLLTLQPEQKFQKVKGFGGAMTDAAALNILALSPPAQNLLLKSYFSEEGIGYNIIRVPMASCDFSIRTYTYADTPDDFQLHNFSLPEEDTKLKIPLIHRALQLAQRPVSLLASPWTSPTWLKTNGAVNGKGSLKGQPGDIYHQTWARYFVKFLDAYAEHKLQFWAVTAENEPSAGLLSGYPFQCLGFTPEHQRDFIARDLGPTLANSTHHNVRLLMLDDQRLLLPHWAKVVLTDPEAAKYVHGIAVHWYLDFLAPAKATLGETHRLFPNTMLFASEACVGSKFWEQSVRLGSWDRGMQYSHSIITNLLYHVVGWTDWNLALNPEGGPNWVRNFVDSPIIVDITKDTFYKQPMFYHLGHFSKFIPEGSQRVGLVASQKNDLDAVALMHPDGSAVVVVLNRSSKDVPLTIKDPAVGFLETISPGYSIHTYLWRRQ
Source text: (§1) In the absence of the “pharmacological chaperone,” the mutated enzyme protein misfolds in the ER (Ishii et al., Biochem. Biophys. Res. Comm. 1996; 220: 812-815), is retarded in its maturation to a final product, and is subsequently degraded by the ER-associated degradation mechanism. Homozygous mutant GCase is associated with the lysosomal storage disease Gaucher disease.

GCase [1] = assay: Phase 2 clinical trials, GCase activity in Gaucher patients expressing certain missense mutations; type: in vivo, human; details: Gaucher patients expressing certain missense mutations that create misfolded GCase
Source text: as §1

GCase [2] = assay: Mouse model of Gaucher disease expressing mutations in the Gba gene; details: in vivo, unpublished data
Source text: as §1

mutant GCase = details: in vitro, fibroblasts from Gaucher patients; cited from earlier work

Structure (SMILES) | increase of the activity of human GCase (human GCase) | GCase activity (GCase [1]) | GCase activity (GCase [2]) | phenotype (GCase [2]) | activity of mutant GCase (mutant GCase)
OC[C@H]1CNC[C@@H](O)[C@@H]1O [IFG tartrate] | up to 3.5 fold | increase in GCase activity | – | – | –
OC[C@H]1CNC[C@@H](O)[C@@H]1O [IFG, (3R,4R,5R)-3,4-dihydroxy-5-hydroxymethyl-piperidine] | – | – | increases GCase activity | improves the phenotype | increase the activity of mutant GCase
